# In patent publication US20230150951A1, “2,5- OR 2,6-DISUBSTITUTED HYDROQUINONE DERIVATIVES WITH AT LEAST ONE CARBOXY, SULFO OR AMIDO GROUP USEFUL AS MEDICAMENTS” (OM PHARMA SA, priority 2020, published 2023):
# Entries after “also recorded” stand apart in the source; their conditions may differ.
# Key:
# [1] = test system: acute pancreatitis murine model; experiment: Caerulein-induced acute pancreatitis murine model; format: in vivo, Balb/c mice; design: Serum IL33 level / Serum TGF-B level: unit not given here; conditions: for Amylase / IL-33 / Lipase / MPO / Schmidt Score / TGF-B / Trichome staining (Fibrosis % area) / TGF-B levels in pancreas / pancreatic tissue levels of IL33: IV; for Amylase / IL-33 / Lipase / MPO / Schmidt Score / TGF-B / Trichome staining (Fibrosis % area): 15 mg/kg, Pirfenidone 100 mg/kg; for Acinar cell necrosis (group mean score) / Haemorrhage (group mean score) / Interstitial oedema (group mean score) / Leukocyte infiltration (group mean score) / Mean terminal BW (% of initial) / Mean terminal pancreas weight / Pancreas histopathology observations (H&E) / Schmidt Score (H&E) / Pancreas IL33 level / Pancreas MPO activity / Pancreas TGF-B level / Serum IL33 level / Serum TGF-B level / Serum amylase level / Serum lipase level: 1st experiment, 15 mg/kg IV, Ib-010a and IVc-059a 150 mg/kg PO, Pirfenidone 40 mg/kg IV; for Acinar cell necrosis (group mean score) / Haemorrhage (group mean score) / Interstitial oedema (group mean score) / Leukocyte infiltration (group mean score) / Mean terminal BW (% of initial) / Mean terminal pancreas weight / Pancreas histopathology observations (H&E) / Schmidt Score (H&E): caerulein induced; for Schmidt Score (H&E): induced + vehicle = 10, non-induced = 0; for Pancreas IL33 level / Pancreas MPO activity / Pancreas TGF-B level: terminal pancreatic tissue; for Serum IL33 level / Serum TGF-B level / Serum amylase level / Serum lipase level: terminal serum; for TGF-B levels in pancreas / pancreatic tissue levels of IL33: first experiment; for pancreatic tissue levels of IL33: compared to the induced group
# Procedure: Therapeutic efficacy of the compounds according to the present invention was assessed on an acute pancreatitis murine model. Tissue samples were obtained to allow post in-life analysis of pancreatitis parameters. Plasma samples were also obtained to assess animal exposure levels after administration of the compounds.
# Animals: A total of 70 female Balb/c mice aged 8-10 weeks weighing approximately 20-25 g were used for the study (Charles River). After 7 days acclimatization, they were allocated into the different groups. […] Cages, bedding, and water were sanitized before use. Animals were provided with Corn-o-cobs enrichment bedding to provide environment enrichment and nesting material. […] The animal holding room were maintained as follows—room temperature at 20-24° C., humidity at 30-70% and a 12 h light/dark cycle used. Although animals used in this study were immuno-competent, preparation of dosing solutions and dosing/weighing of animals were carried out in a sterile biosafety cabinet.
# Final formulation was in 5% DMSO, 10% Solutol, 10% PEG400, 75% 0.9% Saline and pH adjusted to 7 with 0.5M NaOH solution.
# Final formulation is in 5% DMSO, 10% Solutol, 10% PEG400, 75% 0.9% Saline and pH adjusted to 7 with 0.5M NaOH solution. For per os (PO) dosing IVc-059a is formulated in water. Drug solutions were formulated on the day of dosing.
# The purposes of this study were to assess efficacy compounds in an acute pancreatitis model (14 days), generate tissue samples to allow post in-life analysis of pancreatitis parameters and generate four plasma samples to assess animal exposure levels after first and last injection obtained from blood samples taken 1 h and 24 h after first and last injection.
# Study Design: On the first study day animals were randomly be assigned to treatment groups, ensuring an equal spread of bodyweight. Mice (except negative control group) were treated with test compounds were given 5 minutes prior to caerulein dosing, followed by injection with caerulein at […] via intraperitoneal route (IP) daily during the study.
# Treatment of test compounds were given 5 minutes prior to caerulein dosing.
# Sampling and post in-life analyses: at times indicated above a whole blood sample (60 μl) were taken from the lateral tail vein into tubes coated with K2-EDTA. Plasma samples were prepared and stored frozen at −20° C. Plasma samples were sent to client bioanalysis provider Eurofins (FR) for quantification of compound.
# Terminal Sampling: Prior to termination animals were weighed. Terminal study animals were culled via CO2 inhalation. A terminal blood sample was taken via cardiac puncture and plasma prepared. Lipase and Amylase activities were measured via ELISA using commercially available ELISA kits. Remaining plasma was stored for future cytokine analyses. Pancreas tissue was resected and weighed, and a section ([…]) snap frozen and analysed for quantification of compound in pancreas sample. A section ([…]) was processed for measurement of MPO activity, IL-33 and TGF-B levels via ELISA. The remainder was fixed in formalin and embedded in paraffin wax. H&E staining was carried out and section assessed using Schmidts standard scoring system, examining: edema, inflammatory infiltration, parenchymal necrosis, haemorrhage. Massons' Trichrome staining was carried out and area covered by fibrotic tissue quantified digitally using QuPath software. Terminal serum samples was used to assess blood chemistry using an IdeXX CHEM15 and LYTE4 clip (4 animals per treatment group).
# Histopathology assessment of pancreatic injury based on 4 criteria: Oedema, Inflammatory infiltration, Parenchymal necrosis, Haemorrhage and scored as described below.
# Schmidt score is the evaluation of the efficacy of the compounds based on the four histopathology criteria as described in the table below.
# [2] = test system: STZ-induced diabetes model; experiment: STZ-induced diabetic nephropathy, kidney disease and retinopathy model (28 days treatment); conditions: for Mean day 0 blood glucose Concentration (mmol/L) (SD) / Mean day 28 blood glucose Concentration (mmol/L) (SD) / Blood BUN / Disease Score (kidney, H&E) / Eye area (retinal flatmount area covered by vasculature) / Trichrome staining (Kidney fibrosis) / Blood CRP / Blood IL-6 / Blood TGF-beta / Blood TNF-alpha / Urine albumine creatinine ratio (ALB:CRE): 15 mg/kg IV, Captopril 50 mg/kg PO; for Mean day 28 blood glucose Concentration (mmol/L) (SD) / Blood urea nitrogen levels: day 28; for Blood urea nitrogen levels: vs induced vehicle controls; for Blood BUN / Disease Score (kidney, H&E) / Eye area (retinal flatmount area covered by vasculature) / Trichrome staining (Kidney fibrosis) / Blood CRP / Blood IL-6 / Blood TGF-beta / Blood TNF-alpha / Urine albumine creatinine ratio (ALB:CRE): day 28 of treatment (week 9); for Blood CRP / Blood IL-6 / Blood TGF-beta / Blood TNF-alpha: serum; for Urine albumine creatinine ratio (ALB:CRE): urine pooled per group
# Procedure: A total of 70 female CD-1 mice aged 5-7 weeks weighing approximately 25-30 g were used for the study. These were purchased from Charles River, UK and had 7 days acclimatization period. Animals were housed in IVC cages (up to 5 per cage) with individual mice identified by tail mark. All animals were allowed free access to a standard certified commercial diet and sanitised water during the study. The holding room was maintained under standard conditions: 18-24° C., 55-70% humidity and a 12 h light/dark cycle.
# Mice were starved for 6 hours prior to injection. One week after completion of induction glucose levels were monitored and mice with levels less than 15 mml/L (280 mg/gL) were removed from the study as they had not developed the ideal severity of diabetes. Glucose levels were be monitored weekly and 5 weeks after STZ induction biochemical assessment of renal injury was carried out by measuring urine albumin and creatinine levels and confirming they were within the desired range. After successful completion of this stage animals were assigned to treatment groups.
# Treatment continued for 4 weeks (28 days) with weekly measurement of blood glucose and urine albumin/creatinine. The study schedule is detailed below looking at weekly (week 5 to 9) blood glucose levels, urine albumin creatinie ratios, and terminal (week 9) blood chemistry and cytokines, kidney histology and eye-retinal leakage.
# Urine Albumin: Creatinine (ALB: CRE): Urine was collected weekly and pooled for each treatment group.
# ELISAs: At the end of the treatment period blood was collected and processed to serum. Serum levels of CRP, TGF-β, IL-6 and TNF-α were quantified using commercially available ELISA kits, results are shown in Table 56.
Structure (SMILES),Amylase ([1]; second experiment) [mU/mL],IL-33 ([1]; second experiment) [ng/mL],Lipase ([1]; second experiment) [mU/mL],MPO ([1]; second experiment) [U/mg],Schmidt Score ([1]; second experiment),TGF-B ([1]; second experiment) [ng/mL],Trichome staining (Fibrosis % area) ([1]; second experiment) [% area],Blood BUN [2],"Disease Score (kidney, H&E) [2]",Eye area (retinal flatmount area covered by vasculature) [2],Trichrome staining (Kidney fibrosis) [2],Blood CRP [2],Blood IL-6 [2],Blood TGF-beta [2],Blood TNF-alpha [2],Acinar cell necrosis (group mean score) [1],Haemorrhage (group mean score) [1],Interstitial oedema (group mean score) [1],Mean terminal BW (% of initial) [1],Mean terminal pancreas weight [1] [g],other results
"O=C(O)c1cc(NC(=O)c2cc(O)c(C(=O)O)cc2O)cc(C(=O)O)c1 [Ia-015a, 5-(4-carboxy-2,5-dihydroxybenzamido)isophthalic acid]",51.669,398 ± 148,5.31,2.68 ± 0.6,4.6 ± 0.8,547 ± 373,1.704 ± 1.621,,,,,,,,,,,,,,"Lipase activity in serum ([1]; second experiment, pirfenidone 100 mg/kg, compounds 15 mg/k, vs vehicle treated animals): significantly lower than that in vehicle treated animals"
"O=C(O)c1cc(NC(=O)c2cc(O)c(C(=O)O)cc2O)cc(NC(=O)c2cc(O)c(C(=O)O)cc2O)c1 [Ib-010a, 3,5-bis(2,5-dihydroxy-4-carboxybenzoylamino)benzoic acid]",,,,,,,,20.5 ± 3.4,6 ± 1,11.8 ± 1,1.97 ± 0.8,5915 ± 1352,102.72 ± 25.4,13.17 ± 3.11,395.6 ± 46.7,1.0,0.8,1.5,91 % of initial,0.091,Mean day 0 blood glucose Concentration (mmol/L) (SD) [2]: 25.1 (6.1) mmol/L; Mean day 28 blood glucose Concentration (mmol/L) (SD) [2]: 31.1 (3.4) mmol/L; Blood urea nitrogen levels [2]: significantly lower than induced vehicle controls; Urine albumine creatinine ratio (ALB:CRE) [2]: 24.28; Urine ALB:CREA ([2]; treatment day 28): reduced; Leukocyte infiltration (group mean score) [1]: 3.0; Pancreas histopathology observations (H&E) [1]: Oedema observed throughout pancreas and within; also recorded: Mild haemorrhage observed; also recorded: Mild acinar cell necrosis observed; also recorded: Leukocyte infiltration observed; also recorded: Disruption to the basophilic region; Schmidt Score (H&E) [1]: 6.3; Pancreas IL33 level [1]: 157 ± 70; Pancreas MPO activity [1]: 1.83; Pancreas TGF-B level [1]: 219 ± 140; Serum IL33 level [1]: 35.36; Serum TGF-B level [1]: 6.87; Serum amylase level [1]: 37.46; Serum lipase level [1]: 9.06; TGF-B levels in pancreas [1]: decreased significantly; pancreatic tissue levels of IL33 [1]: significant decrease
"O=C(O)c1cc(NC(=O)c2cc(O)c(C(=O)Nc3ccccc3-c3nnn[nH]3)cc2O)ccc1O [Ic-001a-Tz/004a, 5-(4-(2-(1H-tetrazol-5-yl)phenylaminocarbonyl)-2,5-dihydroxybenzamido)-2-hydroxy benzoic acid]",,,,,,,,24.1 ± 4.1,9 ± 1,10.7 ± 2.1,2.48 ± 0.46,6077 ± 863,104.66 ± 22.89,15.48 ± 1.73,322.8 ± 40.1,1.5,1.0,1.6,93.5 % of initial,0.104,Mean day 0 blood glucose Concentration (mmol/L) (SD) [2]: 25.8 (5.7) mmol/L; Mean day 28 blood glucose Concentration (mmol/L) (SD) [2]: 29.6 (7.8) mmol/L; Urine albumine creatinine ratio (ALB:CRE) [2]: 35.10; Leukocyte infiltration (group mean score) [1]: 2.8; Pancreas histopathology observations (H&E) [1]: Oedema observed throughout pancreas; also recorded: Mild haemorrhage observed; also recorded: Acinar cell necrosis observed; also recorded: Leukocyte infiltration throughout; also recorded: Disruption to the basophilic region; Schmidt Score (H&E) [1]: 6.9; Pancreas IL33 level [1]: 180 ± 54; Pancreas MPO activity [1]: 2.15; Pancreas TGF-B level [1]: 369 ± 195; Serum IL33 level [1]: 35.43; Serum TGF-B level [1]: 8.99; Serum amylase level [1]: 36.51; Serum lipase level [1]: 8.21; pancreatic tissue levels of IL33 [1]: significant decrease
"O=C(O)c1cc(NC(=O)c2cc(O)cc(C(=O)Nc3ccc(O)c(C(=O)O)c3)c2O)ccc1O [IIc-007a, 5-(3-(3-carboxy-4-hydroxyphenylaminocarbonyl)-2,5-dihydroxybenzamido)-2-hydroxy benzoic acid]",45.325,340 ± 211,6.481,2.74 ± 0.76,8.3 ± 1.6,500 ± 195,1.821 ± 1.12,,,,,,,,,,,,,,
"O=C(Nc1ccccc1-c1nnn[nH]1)c1cc(O)c(C(=O)Nc2ccccc2-c2nnn[nH]2)cc1O [Ic-001aTz2, N1,N4-bis(2-(1H-tetrazol-5-yl)phenyl)-2,5-dihydroxyterephthalamide]",50.912,493 ± 126,8.305,2.63 ± 0.63,3.9 ± 0.8,696 ± 448,1.366 ± 0.562,,,,,,,,,,,,,,
"O=C(O)c1cc(NC(=O)c2cc(O)c(C(=O)Nc3ccc(O)c(C(=O)O)c3)cc2O)ccc1O [Ic-007a, 5-(4-(3-carboxy-4-hydroxyphenylaminocarbonyl)-2,5-dihydroxybenzamido)-2-hydroxy benzoic acid]",,,,,,,,21.7 ± 3.0,7 ± 1,9.1 ± 1.1,2.23 ± 0.61,5707 ± 892,109.27 ± 19.03,16.66 ± 2.11,326.8 ± 63^,1.0,1.0,1.0,91.2 % of initial,0.109,"Retina vasculature coverage ([2]; 28 days, retinal flat mounts, FITC-dextran): significantly decreased; Blood urea nitrogen levels [2]: significantly lower than induced vehicle controls; Pancreas histopathology observations (H&E) [1]: Mild oedema observed; also recorded: Mild haemorrhage observed; also recorded: Mild acinar cell necrosis observed; also recorded: Leukocyte infiltration observed; also recorded: Disruption to the basophilic region; Schmidt Score (H&E) [1]: 6.0; Pancreas IL33 level [1]: 147 ± 47; Pancreas MPO activity [1]: 1.65; Pancreas TGF-B level [1]: 188 ± 77; Serum IL33 level [1]: 34.93; Serum TGF-B level [1]: 6.17; Serum amylase level [1]: 34.86; Serum lipase level [1]: 9.28; TGF-B levels in pancreas [1]: decreased significantly; pancreatic tissue levels of IL33 [1]: significant decrease"
